Laboratory results: patent US10597696B2, “Detection of Niemann-Pick disease comprising detection of lysozyme and cathepsins” (UNIVERSITY OF NOTRE DAME DU LAC, priority 2013, dated 2020)

Columns and labels:
NPC patients [1] = experiment: Plasma lysozyme level in Miglustat-treated NPC patients; assay type: in vivo, human; conditions: Miglustat-treated NPC samples vs untreated NPC and healthy controls
Excerpt: (§1) A major hurdle is that inflammatory products of cerebral disease are not easily detected in blood. Inflammation in multiple organs and heterogeneity in disease present additional challenges in distinguishing the extent to which a blood based marker reflects disease in brain or other afflicted organs. We utilized murine models of the monogenetic disorder Niemann Pick Type C (NPC) that present aggressive forms of cerebral and liver inflammatory disease to identify secretory biomarkers for neuroinflammation. […] We utilized 2-hydroxypropyl-beta-cyclodextrin (HPβCD; an emerging therapeutic) administered intraperitoneally in mice, which abrogates inflammatory pathology in the liver but has limited effect on the brain. By analyzing the corresponding effects on inflammatory plasma proteins, we identified cathepsin S as a lead indicator of liver disease. In contrast lysozyme was a marker of both brain and liver disease. The study was extended on human samples. The level of lysozyme and cathepsin S were determined in the plasma samples from healthy individuals (age and gender matched), untreated NPC patients and Miglustat (also known as Zavesca) treated NPC patients. […] The plasma concentration of these two markers in untreated and Miglustat treated NPC samples when analyzed together yielded a composite score to assess extent of neurodegeneration. […]

NPC patients [2] = experiment: Plasma cathepsin S level in Miglustat-treated NPC patients; assay type: in vivo, human; conditions: patients treated with Miglustat vs untreated NPC patients
Excerpt: as §1

CCCCN1C[C@H](O)[C@@H](O)[C@H](O)[C@H]1CO [Miglustat]
plasma lysozyme level (NPC patients [1]): reduced compared to untreated NPC patients and were equivalent to healthy controls
plasma cathepsin S (NPC patients [2]): further elevated
